Assay results taken from ChEMBL document CHEMBL1201862, “PubChem BioAssay data set” (2004).
Blank lines part the entries; values can stand above or below the compound they belong to. Calls of active or inactive are those of the source.

What was measured:
[1] = target: T1, DNA repair and recombination protein RAD54-like (Homo sapiens, UniProt Q92698); assay: inhibitors of human RAD54 branch migration, confirmation, biochemical, fluorescence, cherry-picked samples, dose series (AID 651657); assay type: functional
T1 sequence (Q92698 whole entry): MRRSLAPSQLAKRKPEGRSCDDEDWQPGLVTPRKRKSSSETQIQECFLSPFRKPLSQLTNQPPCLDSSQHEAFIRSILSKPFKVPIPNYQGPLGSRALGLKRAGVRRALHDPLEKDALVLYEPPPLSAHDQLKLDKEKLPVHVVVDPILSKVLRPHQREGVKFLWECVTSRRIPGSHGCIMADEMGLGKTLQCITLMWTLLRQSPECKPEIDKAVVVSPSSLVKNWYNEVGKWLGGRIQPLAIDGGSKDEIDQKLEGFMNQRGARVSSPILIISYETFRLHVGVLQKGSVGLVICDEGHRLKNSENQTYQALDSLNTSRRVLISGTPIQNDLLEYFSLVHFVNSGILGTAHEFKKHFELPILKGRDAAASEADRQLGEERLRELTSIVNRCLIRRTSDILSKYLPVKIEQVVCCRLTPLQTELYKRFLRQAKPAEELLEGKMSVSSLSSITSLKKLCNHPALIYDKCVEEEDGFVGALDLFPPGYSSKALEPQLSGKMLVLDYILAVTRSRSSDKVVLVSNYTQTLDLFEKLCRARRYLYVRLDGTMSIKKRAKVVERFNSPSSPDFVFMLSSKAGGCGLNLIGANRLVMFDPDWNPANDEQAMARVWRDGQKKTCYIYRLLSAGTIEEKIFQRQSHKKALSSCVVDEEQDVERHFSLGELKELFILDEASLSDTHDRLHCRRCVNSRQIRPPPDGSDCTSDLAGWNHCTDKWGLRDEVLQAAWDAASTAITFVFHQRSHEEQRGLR

[2] = IGROV1 ovarian cancer cell cytotoxicity, dose response, PAX8 inhibitor project, plate reader, dry powder samples (AID 743043); assay type: functional, cell-based; settings: IGROV-1
[3] = cytotoxicity in OVCAR8 ovarian cancer cells, dose response, PAX8 project, cell-based, plate reader, dry powder samples (AID 743197); assay type: functional; settings: OVCAR-8
[4] = NIH:OVCAR-3 ovarian cancer cell cytotoxicity, dose response, PAX8 inhibitor project, plate reader, dry powder samples (AID 743044); assay type: functional, cell-based
[5] = target: Paired box protein Pax-8 (Homo sapiens, UniProt Q06710); assay: inhibitors of PAX8-driven TPO luciferase reporter, dose response, RMG-I cells, cherry-pick (AID 687027); assay type: functional, cell-based;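 also: luciferase reporter driven by Pax8 target thyroperoxidase promoter measured by SteadyGlo luminescence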
Paired box protein Pax-8, sequence (Q06710 whole entry): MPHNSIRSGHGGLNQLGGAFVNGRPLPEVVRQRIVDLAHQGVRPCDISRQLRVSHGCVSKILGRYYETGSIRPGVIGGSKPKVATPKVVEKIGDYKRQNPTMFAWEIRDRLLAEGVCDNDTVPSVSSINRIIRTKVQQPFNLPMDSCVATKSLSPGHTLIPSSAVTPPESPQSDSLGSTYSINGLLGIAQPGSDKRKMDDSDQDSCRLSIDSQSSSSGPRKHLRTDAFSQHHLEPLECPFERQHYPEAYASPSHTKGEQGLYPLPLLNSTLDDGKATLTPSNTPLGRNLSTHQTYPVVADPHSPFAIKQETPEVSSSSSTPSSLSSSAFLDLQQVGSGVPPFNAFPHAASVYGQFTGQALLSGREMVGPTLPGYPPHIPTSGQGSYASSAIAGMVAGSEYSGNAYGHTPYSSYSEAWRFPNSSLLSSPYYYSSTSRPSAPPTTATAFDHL

[6] = target: T2, Trace amine-associated receptor 1 (Homo sapiens, UniProt Q96RJ0); assay: Fluorescence-based cell-based high throughput dose response assay to identify agonists of the human trace amine associated receptor 1 (TAAR1).; assay type: functional
T2 sequence (Q96RJ0 whole entry): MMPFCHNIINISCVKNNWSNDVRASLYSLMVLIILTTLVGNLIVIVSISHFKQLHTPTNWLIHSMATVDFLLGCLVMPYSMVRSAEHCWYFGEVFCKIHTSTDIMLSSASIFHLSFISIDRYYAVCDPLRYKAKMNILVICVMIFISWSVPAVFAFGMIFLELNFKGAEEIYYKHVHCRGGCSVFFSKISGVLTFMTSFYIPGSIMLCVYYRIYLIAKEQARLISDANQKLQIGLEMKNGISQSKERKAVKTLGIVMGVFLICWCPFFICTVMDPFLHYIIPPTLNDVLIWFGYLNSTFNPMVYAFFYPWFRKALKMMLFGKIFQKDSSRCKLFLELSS

[7] = cells; assay type: functional, cell-based
[8] = cells; assay type: functional, cell-based; remark: listed apart in the source
[9] = target: T2, Trace amine-associated receptor 1; assay: Counterscreen for agonists of the human trace amine associated receptor 1 (hTAAR1): Fluorescence-based cell-based high throughput dose response assay to identify hTAAR1 agonist that also desensitize TAAR1 receptor response.; assay type: functional
[10] = test system: BJ; assay: cytotoxicity toward BJ-TERT fibroblasts, dose response, cell-based, RAS-independent, luminescence (AID 1933); assay type: functional; settings: Homo sapiens
[11] = test system: BJ; assay: cells; assay type: functional, cell-based; settings: Homo sapiens
[12] = test system: BJ; assay: cytotoxicity toward BJ-TERT-LT-ST fibroblasts, dose response, cell-based, RAS-independent, luminescence (AID 1935); assay type: functional; settings: Homo sapiens;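 also: BJ fibroblasts immortalized with TERT plus LT and ST oncogenes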
[13] = cytotoxicity toward DRD oncogenic fibroblasts, dose response, cell-based, non-viral oncogenic, luminescence (AID 1934); assay type: functional; settings: Homo sapiens
[14] = target: Cytochrome P450 3A4 (Homo sapiens, UniProt P08684); settings: Potency;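 also: confirmatory qHTS run detecting inhibitors and substrates of CYP3A4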
Cytochrome P450 3A4, sequence (P08684 whole entry): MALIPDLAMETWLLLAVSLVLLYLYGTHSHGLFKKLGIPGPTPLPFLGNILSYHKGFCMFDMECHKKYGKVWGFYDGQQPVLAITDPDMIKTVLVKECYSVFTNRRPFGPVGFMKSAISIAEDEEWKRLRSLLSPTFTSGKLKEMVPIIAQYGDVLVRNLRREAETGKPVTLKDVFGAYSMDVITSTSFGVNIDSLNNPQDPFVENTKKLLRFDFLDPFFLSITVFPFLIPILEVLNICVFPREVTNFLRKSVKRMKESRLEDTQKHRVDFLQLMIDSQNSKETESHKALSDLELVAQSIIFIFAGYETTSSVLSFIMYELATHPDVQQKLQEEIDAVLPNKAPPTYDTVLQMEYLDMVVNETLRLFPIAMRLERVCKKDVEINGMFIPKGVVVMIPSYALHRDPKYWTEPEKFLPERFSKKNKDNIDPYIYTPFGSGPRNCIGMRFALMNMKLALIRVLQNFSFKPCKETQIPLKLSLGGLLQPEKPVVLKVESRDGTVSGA

[15] = cytotoxicity in HEK-293T cells, dose response, cytotoxicity control for BCR NF-kB inhibitor project, luminescence, B-cell screen hits (AID 489021); assay type: functional, cell-based;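 also: HEK-293T cells carrying an NF-kB luciferase reporter; cells exposed to compound for about 14 hours before viability readout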
[16] = P. falciparum Dd2 growth inhibitors, dose response, SYBR Green, cherry-picked samples (AID 1159567); assay type: functional, cell-based

AC50 [1]: 100 µM (inactive)
Structure (SMILES): c1ccc(-c2nc(NCCCn3ccnc3)c3oc4ccccc4c3n2)cc1

Structure (SMILES): C[C@@H]1CN([C@@H](C)CO)C(=O)Cc2cc(N(C)C)ccc2O[C@H]1CN(C)Cc1ccc(C(=O)Nc2ccccc2N)cc1
AC50 [2]: 45.1 µM (active) | AC50 [3]: > 70 µM (inactive) | AC50 [4]: < 0.26 µM (active) | AC50 [5]: 16.6 µM (active)

Structure (SMILES): O=C(CCn1c(=S)[nH]c2cc3c(cc2c1=O)OCO3)NCCc1ccccc1Cl
EC50 [6]: 7.04 µM (active) | IC50 [7]: > 29.9 µM (inactive) | EC50 [8]: > 29.9 µM (inactive) | IC50 [9]: 9.24 µM (active)

Structure (SMILES): CCc1ccc(CN(C(=O)COc2c(C)cccc2C)C2CCS(=O)(=O)C2)cc1 (stereo not given)
EC50 [10]: > 150 µM (not active) | EC50 [11]: > 150 µM (not active) | EC50 [12]: > 150 µM (inconclusive) | EC50 [13]: > 150 µM (not active)

AC50 [14]: 15.8 µM (inconclusive)
Structure (SMILES): CNC(=O)C1(C)C=CC2(CCCCC2)N1C(C)=O (stereo not given)

Structure (SMILES): Cc1ccc(S(=O)(=O)N2CCCCC2CCNC(=O)C(=O)NCc2ccncc2)cc1 (stereo not given)
IC50 [15]: > 80 µM (inactive)

Structure (SMILES): COc1cccc(OC)c1C(=O)NCCc1ccccc1
EC50 [6]: 2.64 µM (active) | IC50 [7]: > 29.9 µM (inactive) | EC50 [8]: > 29.9 µM (inactive) | IC50 [9]: 9.6 µM (active)

Structure (SMILES): Cc1ccsc1/C=N/NC(=O)Cn1nc(C)c([N+](=O)[O-])c1C
EC50 [6]: 3.79 µM (active) | IC50 [7]: > 29.9 µM (inactive) | EC50 [8]: > 29.9 µM (inactive) | IC50 [9]: 5.81 µM (active)

Structure (SMILES): Cc1ccc(C(=O)N2CCCC(c3ccc(Cl)cc3)=N2)cc1
IC50 [15]: > 80 µM (inactive)

Structure (SMILES): Cc1cc(OC(=O)c2ccccc2Cl)cc(=O)n1C
IC50 [15]: > 80 µM (inactive)

Structure (SMILES): C[C@H](CO)N1C[C@H](C)[C@@H](CN(C)S(=O)(=O)c2cccc(F)c2)OCc2ccccc2-c2c(n(C)c3ccccc23)C1=O
AC50 [3]: > 70 µM (inactive) | AC50 [16]: 4.19 µM (active) | AC50 [4]: 43.2 µM (active) | AC50 [5]: 11.1 µM (active)

AC50 [14]: 15.8 µM (inconclusive)
Structure (SMILES): CC1=C(C(=O)OCc2ccccc2)C(c2ccc(C(F)(F)F)cc2)NC(=O)N1CCCCCC(=O)O (stereo not given)
